Reference: patent US7709653B2, “Asymmetric cyanine compounds, their preparation methods and their uses” (Shenzhen Mindray Bio-Medical Electronics Co. Ltd., priority 2008, dated 2010)

What was measured:
salmon sperm DNA = test: Fluorescence intensity of dye in PBS containing salmon sperm DNA; type: binding; conditions: for Relative fluorescence intensity, after binding DNA: bound with salmon sperm DNA; for Maximum excitation peak of the dye/DNA complexes: room temperature; for Ratio of increase in fluorescence (after vs before binding): salmon sperm DNA in PBS; for Fluorescence emission strength of the dye/DNA complexes: with increase in DNA concentration / on complex formation, PBS
Description: A certain amount of Dye-1 was accurately weighed and sufficiently dissolved in 2.5 mL of methanol/ethylene glycol (50:50 vol/vol) to prepare a dye solution at a concentration of 5 mM. This solution was filtered before use. Separate amounts of salmon sperm DNA were weighed and dissolved in PBS to obtain PBS buffers containing 3 mg/mL, 1 mg/mL, 0.3 mg/mL, 0.1 mg/mL of DNA. 2 μL aliquots of the prepared 5 mM dye solution were accurately measured and respectively combined in 1 mL of PBS with 1 μL of the PBS buffers containing different concentrations of DNA. After reacting for a period of time, the complexes were detected for their emission spectra at the selected excitation wavelength (which the skilled artisan would understand is the maximum absorption wavelength of the dye. See, e.g., Table 1). The detection was performed at room temperature. The instrument used was fluorescence spectrophotometer Model FL-4500. […] The detection procedures followed were those described in Example 10 and Example 11. The fluorescence spectra for the complexes of Dye-3 and different concentrations of DNA or RNA are shown in FIG. 6 and FIG. 7, respectively. The comparisons of fluorescence intensity for Dye-3 before and after it is bound with DNA or with RNA in PBS are shown in FIG. 8 and FIG. 9, respectively.

[1] = Detection of the absorption peak of the fluorescent dyes (UV-visible spectrophotometer, after standing at different temperatures); type: physicochemical; conditions: for Maximum absorption peak of the compounds disclosed: methanol/ethylene glycol (50:50 vol/vol), light-proof; for Maximum absorption peak: methanol/ethylene glycol, given with the synthesis example
Description: A certain amount of an asymmetric cyanine compound was accurately weighed and sufficiently dissolved in 2.5 mL of methanol/ethylene glycol solution (50:50 vol/vol) to prepare a fluorescent dye solution at a concentration of 5 mM. Four parts of 5 μL aliquots of the fluorescent dye solution were each diluted in 2 mL of methanol/ethylene glycol solution (50:50 vol/vol) and were let stand under a hermetic and light-proof condition at 0° C., 20° C., 40° C. and 60° C. respectively for 48 hours. The maximum absorption peak was detected using a ultraviolet-visible spectrophotometer.

[2] = tested on: soft-shelled turtle (Trionyx sinensis) liver RNA; test: Fluorescence intensity of dye in PBS containing soft-shelled turtle liver RNA; type: binding; conditions: for Relative fluorescence intensity, after binding RNA / Maximum excitation peak of the dye/RNA complexes / Relative fluorescence intensity, before binding RNA: in PBS; for Relative fluorescence intensity, after binding RNA: bound with soft-shelled turtle liver RNA; for Maximum excitation peak of the dye/RNA complexes: room temperature; for Relative fluorescence intensity, before binding RNA: without RNA; for Ratio of increase in fluorescence (after vs before binding): soft-shelled turtle liver RNA in PBS; for Fluorescence emission strength of the dye/RNA complexes: with increase in RNA concentration / on complex formation, PBS
Description: A certain amount of Dye-1 was accurately weighed and sufficiently dissolved in 2.5 mL of methanol/ethylene glycol (50:50 vol/vol) to prepare a dye solution at a concentration of 5 mM. This solution was filtered before use. Separate amounts of freshly prepared soft-shelled turtle (Trionyx sinensis) liver RNA were weighed and dissolved in PBS to obtain PBS buffers containing 100 μg/mL, 30 μg/mL, 10 μg/mL, 3 μg/mL of RNA. 2 μL aliquots of the prepared 5 mM dye solution were accurately measured and respectively combined in 1 mL of PBS with 1 μL of the PBS buffers containing different concentrations of RNA. After reacting for a period of time, the complexes were detected for their emission spectra at the selected excitation wavelength (which the skilled artisan would understand is the maximum absorption wavelength of the dye. See, e.g., Table 1). The detection temperature was at room temperature. The instrument used was fluorescence spectrophotometer Model FL-4500. […] The detection procedures followed were those described in Example 10 and Example 11. The fluorescence spectra for the complexes of Dye-3 and different concentrations of DNA or RNA are shown in FIG. 6 and FIG. 7, respectively. The comparisons of fluorescence intensity for Dye-3 before and after it is bound with DNA or with RNA in PBS are shown in FIG. 8 and FIG. 9, respectively.

[3] = after standing at 0° C. for 48 hours
[4] = after standing at 20° C. for 48 hours
[5] = after standing at 40° C. for 48 hours
[6] = after standing at 60° C. for 48 hours

Structure (SMILES)	Relative fluorescence intensity, after binding DNA (salmon sperm DNA; in PBS)	Maximum excitation peak of the dye/DNA complexes (salmon sperm DNA; in PBS)	Ratio of increase in fluorescence (after vs before binding) (salmon sperm DNA)	Fluorescence emission strength of the dye/DNA complexes (salmon sperm DNA)	Maximum absorption peak of the compounds disclosed [1, 3] [nm]	Maximum absorption peak of the compounds disclosed [1, 4] [nm]	Maximum absorption peak of the compounds disclosed [1, 5] [nm]	Maximum absorption peak of the compounds disclosed [1, 6] [nm]	Maximum absorption peak [1] [nm]	Relative fluorescence intensity, after binding RNA [2]	Maximum excitation peak of the dye/RNA complexes [2]	Relative fluorescence intensity, before binding RNA [2]	Ratio of increase in fluorescence (after vs before binding) [2]	Fluorescence emission strength of the dye/RNA complexes [2]	Relative fluorescence intensity, before binding DNA (salmon sperm DNA; in PBS, without salmon sperm DNA)	Shift of the position of the maximum absorption peak as a function of temperature ([1]; 0° C., 20° C., 40° C. and 60° C. for 48 hours)
OCCN1C=C/C(=C\C=C\c2sc3ccc(Cl)cc3[n+]2CCO)c2ccccc21 [Dye-1]	63.29	about 660 nm	84	increased rapidly	638	638	638	638	638	16.79	about 660 nm	0.75	22.4	increased rapidly	–	–
CCN1C=C/C(=C\C=C\c2sc3ccccc3[n+]2CCO)c2ccc(Cl)cc21 [Dye-4]	–	–	–	–	639	639	639	639	639	–	–	–	–	–	–	–
CC[n+]1c(/C=C/C=C2\C=CN(CCO)c3ccccc32)sc2ccc(Br)cc21 [Dye-5]	–	–	–	–	640	640	640	640	640	–	–	–	–	–	–	–
OCCN1C=C/C(=C\C=C\c2sc3ccccc3[n+]2CCO)c2ccc(Br)cc21 [Dye-6]	–	–	–	–	638	638	638	638	638	–	–	–	–	–	–	–
CCN1C=C/C(=C\C=C\c2sc3ccccc3[n+]2CCOC(C)=O)c2ccc(Cl)cc21 [Dye-2]	–	–	–	–	639	639	639	639	639	–	–	–	–	–	–	–
CC[n+]1c(/C=C/C=C2\C=CN(CCO)c3ccccc32)sc2ccc(Cl)cc21 [Dye-3]	97.56	> 655 nm	146	increased rapidly	–	–	–	–	640	23.94	> 655 nm	0.67	35.7	increased rapidly	0.67	did not shift
